Results: paper PMC7935272 (PLoS Pathogens, 2021)
Where “and” joins values, the source holds several entries; their conditions need not be identical. Equal entries are not always repeated. Entries after “also recorded” stand apart in the source; their conditions may differ. Where two headings read alike, the source gives them in different places.

Columns and labels:
MeV L = target: T1, MeV L (Measles virus, UniProt P12576); experiment: MeV minigenome dose-response assay, L WT; type: cell-based; details: 40 h, ERDRP-0519 0.005 µM; L WT; Figure 1D; read-out: minigenome activity, individual repeat
T1 construct: expressed in transfected cells; host or cells: BSR-T7/5

WT MeV L-P complexes = WT MeV L-P complexes (Measles virus, UniProt Q9WMB3); experiment: Primer extension RdRP assay, GTP only (first nucleotide), L WT; type: biochemical; details: 5 h, read-out: first nucleotide incorporation signal (FIG 4D densitometry, first row = 100)
in vitro = type: cell-based, African green monkey; details: African green monkey; Vero-hSLAM, 72 hours
Description: (§1) To determine cytotoxic concentrations Vero-hSLAM cells were plated in 96 well plates (1.1 × 10^4 per well) and incubated with three-fold serial dilutions of compound. After incubation of uninfected cells for 72 hours, PrestoBlue substrate (Invitrogen) was added to quantify cell metabolic activity as described. Signal was measured using a BioTek H1 synergy multimode microplate reader. Where applicable, cytotoxic concentrations (CC50) were calculated based on four-parameter variable slope regression modeling.

Vero-hSLAM cells = experiment: in vitro; type: cell-based, African green monkey
Description: as §1

MeV [1] = experiment: Cell-based anti-MeV assays of earlier work
[2] = cited from earlier work
[3] = test system: MeV mRNA transcripts (P, H, L); experiment: qRT-PCR of MeV primary transcription in infected Vero-hSLAM cells; type: cell-based; details: for Transcription gradient, H mRNA, Predicted (LS) mean 2 / Transcription gradient, L mRNA, Predicted (LS) mean 2 / Transcription gradient, P mRNA, Predicted (LS) mean 2: Figure 3I, N2 3
Description: Total RNA was extracted four hours after infection using Trizol and subjected to reverse transcription using either oligo-dT primers. Subsequent qPCR used primer pairs specific for MeV P mRNA, MeV H mRNA, MeV L mRNA, or human GAPDH mRNA, respectively. qPCR was performed using an Applied Biosystems 7500 Real-Time PCR System with a StepOnePlus Real-Time PCR System. Samples were normalized for GAPDH.

MeV L full length = MeV L full length (Measles virus, UniProt Q9WMB3); experiment: Biolayer interferometry, full-length MeV P-L; type: binding; details: for S5 A BLI sensorgram response / S5 D BLI response versus compound conc.: MeV L full length; for steady-state BLI sensor response: S7 A
[4] = test system: MeV L-P complexes L H589Y; type: biochemical; details: de novo initiation, L H589Y vs WT
MeV P-L complexes = MeV P-L complexes (Measles virus, UniProt Q9WMB3); experiment: In vitro RdRP assay on 25-nt RSV promoter template (de novo initiation and back-priming); details: 25-mer RSV promoter template
[5] = test system: canine distemper virus (CDV); details: oral treatment initiated at first day of viremia; cited from earlier work
[6] = test system: MeV L-P complexes L T776A; type: biochemical; details: primer extension, L T776A vs WT
RSV L = RSV L (Human respiratory syncytial virus A, UniProt P28887); experiment: Biolayer interferometry, RSV L specificity control; type: binding; details: for steady-state BLI sensor response: S7 C
MeV [7] = experiment: Antiviral dose-response assay, MeV-NanoPEST reporter virus in Vero-hSLAM cells

## Cn1nc(C(F)(F)F)cc1C(=O)Nc1ccc(S(=O)(=O)N2CCCC[C@H]2CCN2CCOCC2)cc1 [ERDRP-0519, S(=O)(=O)(N1[C@H](CCN2CCOCC2)CCCC1)c1ccc(NC(=O)c2n(C)nc(C(F)(F)F)c2)cc1]
MeV L
  remaining activity at 0.005 µM: 97%
WT MeV L-P complexes; 0.0152416 µM
  remaining activity at 0.0152416 µM: 92.5%
WT MeV L-P complexes; 0.0457247 µM
  remaining activity at 0.0457247 µM: 96.8%
WT MeV L-P complexes; 0.137174 µM
  remaining activity at 0.137174 µM: 64.3%
WT MeV L-P complexes; 0.411523 µM
  remaining activity at 0.411523 µM: 40.5%
WT MeV L-P complexes; 1.23457 µM
  remaining activity at 1.23457 µM: 30.4%
WT MeV L-P complexes; 3.7037 µM
  remaining activity at 3.7037 µM: 30%
WT MeV L-P complexes; 11.1111 µM
  remaining activity at 11.1111 µM: 27.6%
WT MeV L-P complexes; 33.3333 µM
  remaining activity at 33.3333 µM: 26%
In vitro
  CC50: > 100000 nM
Vero-hSLAM cells; cpd concentration 0.045725
  Cytotoxicity, normalized metabolic activity (Figure 5B): 92.6189 and 91.5198 and 89.1889
Vero-hSLAM cells; cpd concentration 0.137174
  Cytotoxicity, normalized metabolic activity (Figure 5B): 93.2443 and 94.6845 and 97.0722
Vero-hSLAM cells; cpd concentration 0.411523
  Cytotoxicity, normalized metabolic activity (Figure 5B): 98.6261 and 97.1101 and 101.469
Vero-hSLAM cells; cpd concentration 1.23457
  Cytotoxicity, normalized metabolic activity (Figure 5B): 100.919 and 98.2092 and 94.5139
Vero-hSLAM cells; cpd concentration 3.7037
  Cytotoxicity, normalized metabolic activity (Figure 5B): 98.683 and 65.7665 and 99.5736
Vero-hSLAM cells; cpd concentration 11.1111
  Cytotoxicity, normalized metabolic activity (Figure 5B): 96.5984 and 96.9017 and 98.6451
Vero-hSLAM cells; cpd concentration 33.3333
  Cytotoxicity, normalized metabolic activity (Figure 5B): 105.751 and 104.652 and 106.244
Vero-hSLAM cells; cpd concentration 100
  Cytotoxicity, normalized metabolic activity (Figure 5B): 82.5753 and 96.0868 and 96.0678
MeV [1]; Figure 7A source data
  IC50: 60 nM
MeV [1]; −log10(EC50) of literature EC50
  IC50: 60.1 nM
[2]
  CC50: 75000 nM
[3]; 0.2 μM or 0.8 μM, 4 hours after infection, recMeV-Anc MOI 3
  MeV P mRNA levels: significantly decreased; also recorded: dose-dependently reduced
[3]; 0.2 µM
  Transcription gradient, H mRNA, Predicted (LS) mean 2: 0.1422
  Transcription gradient, L mRNA, Predicted (LS) mean 2: 0.005639
  Transcription gradient, P mRNA, Predicted (LS) mean 2: 1.063
[3]; 0.8 µM
  Transcription gradient, H mRNA, Predicted (LS) mean 2: 0.1249
  Transcription gradient, L mRNA, Predicted (LS) mean 2: 0.007941
  Transcription gradient, P mRNA, Predicted (LS) mean 2: 1.011
MeV L full length; 0.003 µM, time 0 s
  S5 A BLI sensorgram response: -0.0003139
MeV L full length; 0.003 µM, time 0.2 s
  S5 A BLI sensorgram response: -0.001098
MeV L full length; 0.003 µM, time 0.4 s
  S5 A BLI sensorgram response: -0.001645
MeV L full length; 0.003 µM, time 0.6 s
  S5 A BLI sensorgram response: -0.002393
MeV L full length; 0.027 µM, time 0 s
  S5 A BLI sensorgram response: 0.0009777
MeV L full length; 0.027 µM, time 0.2 s
  S5 A BLI sensorgram response: 0.001373
MeV L full length; 0.027 µM, time 0.4 s
  S5 A BLI sensorgram response: 0.001785
MeV L full length; 0.027 µM, time 0.6 s
  S5 A BLI sensorgram response: 0.001728
MeV L full length; 0.08 µM, time 0 s
  S5 A BLI sensorgram response: 0.003123
MeV L full length; 0.08 µM, time 0.2 s
  S5 A BLI sensorgram response: 0.003018
MeV L full length; 0.08 µM, time 0.4 s
  S5 A BLI sensorgram response: 0.00257
MeV L full length; 0.08 µM, time 0.6 s
  S5 A BLI sensorgram response: 0.002431
MeV L full length; 0.74 µM, time 0 s
  S5 A BLI sensorgram response: 0.002177
MeV L full length; 0.74 µM, time 0.2 s
  S5 A BLI sensorgram response: 0.002548
MeV L full length; 0.74 µM, time 0.4 s
  S5 A BLI sensorgram response: 0.002706
MeV L full length; 0.74 µM, time 0.6 s
  S5 A BLI sensorgram response: 0.002805
MeV L full length; 2.22 µM, time 0 s
  S5 A BLI sensorgram response: 0.01086
MeV L full length; 2.22 µM, time 0.2 s
  S5 A BLI sensorgram response: 0.01025
MeV L full length; 2.22 µM, time 0.4 s
  S5 A BLI sensorgram response: 0.009623
MeV L full length; 2.22 µM, time 0.6 s
  S5 A BLI sensorgram response: 0.009062
MeV L full length; compound conc. 0.003 uM
  S5 D BLI response versus compound conc.: 0.005655
MeV L full length; compound conc. 0.027 uM
  S5 D BLI response versus compound conc.: 0.009916
MeV L full length; compound conc. 0.08 uM
  S5 D BLI response versus compound conc.: 0.008265
MeV L full length; compound conc. 0.74 uM
  S5 D BLI response versus compound conc.: 0.01334
MeV L full length; 0.003 uM
  steady-state BLI sensor response: 0.006846
MeV L full length; 0.027 uM
  steady-state BLI sensor response: 0.008208
MeV L full length; 0.08 uM
  steady-state BLI sensor response: 0.009438
MeV L full length; 0.74 uM
  steady-state BLI sensor response: 0.01375
MeV L full length; 6.67 uM
  steady-state BLI sensor response: 0.01276
MeV L full length; 20 uM
  steady-state BLI sensor response: 0.01504
[4]
  increase in IC50 value: 24 fold
MeV P-L complexes
  3'-elongation after backpriming: equivalently dose-dependently blocked
[5]
  survival: all treated animals survived
[6]
  IC50 increase: 2.5 fold
RSV L; BLI specificity control
  binding to RSV polymerase: No appreciable binding; also recorded: no binding was detected
RSV L; 0.003 uM
  steady-state BLI sensor response: 0.004459
RSV L; 0.009 uM
  steady-state BLI sensor response: 0.00801
RSV L; 0.027 uM
  steady-state BLI sensor response: 0.008695
RSV L; 0.24 uM
  steady-state BLI sensor response: 0.01534
RSV L; 0.74 uM
  steady-state BLI sensor response: 0.01342
RSV L; 2.22 uM
  steady-state BLI sensor response: 0.007742
RSV L; 6.67 uM
  steady-state BLI sensor response: 0.01053
RSV L; 20 uM
  steady-state BLI sensor response: 0.00593
MeV [7]
  EC50: 200 nM
MeV [7]; cpd concentration 0.009145
  MeV inhibition, normalized reporter signal (Figure 5B): 105.005 and 86.0196
MeV [7]; cpd concentration 0.027435
  MeV inhibition, normalized reporter signal (Figure 5B): 126.572 and 81.3143
MeV [7]; cpd concentration 0.082305
  MeV inhibition, normalized reporter signal (Figure 5B): 101.803 and 75.4494
MeV [7]; cpd concentration 0.246914
  MeV inhibition, normalized reporter signal (Figure 5B): 43.9689 and 25.1431
MeV [7]; cpd concentration 0.740741
  MeV inhibition, normalized reporter signal (Figure 5B): 3.4563 and 3.061
MeV [7]; cpd concentration 2.22222
  MeV inhibition, normalized reporter signal (Figure 5B): 0.8619 and 1.175
MeV [7]; cpd concentration 6.66667
  MeV inhibition, normalized reporter signal (Figure 5B): 0.4673 and 0.8278
